Laboratory results taken from patent publication US10975037B2 (priority 2018, dated 2021).
Read-outs that look alike come from different tables or passages of the source. One block for each compound: values may come before it.

Biological target: full-length human RORγt (Homo sapiens (Human), UniProt P51449)
Assay: RORγt (full-length human) reporter assay, conditions A or B, HEK293T cells
Type: cell-based
Conditions: HEK-293T, read-out: RORγt (FL) Reporter Assay A or B, % inhibition; for inhibition at 1 µM: 1 μM compound concentration (footnote ***)
Method: RORγt (Full-Length Human) Reporter Assay:
(§1) HEK293T cells were plated at 35,000 per well in 96-well plate in medium of DMEM with 10% FBS. […] After overnight (16 to 20 hours) incubation, media were removed and cells were lysed with 50 L Glo Lysis Buffer (Promega) for 10-15 minutes followed by 10 minute incubation with 50 μL Dual Glo reagent (Promega) at room temperature. Firefly luciferase luminescence was measured using a BMG Pherastar plate reader. To each well, 50 μL Stop and Glo reagent was added and incubated for 10 minutes at room temperature. Renilla luminescence was measured using a BMG Pherastar plate reader. To calculate the effect of compounds on RORγt activity, firefly values were normalized against values of DMSO only and values of reference compound at saturating concentration, then further normalized against Renilla signals. IC50s were generated by plotting final Renilla normalized data against compound concentration and percent inhibition was calculated against DMSO control.
as §1, with “at 8750 cells” for “at 35,000”, “in 384-well” for “in 96-well”, “with 20” for “with 50”, “well, 20” for “well, 50”

[1] = 3 μM compound concentration (footnote *)

Sequence of full-length human RORγt (P51449 other isoform, or with tags, fused parts or gaps): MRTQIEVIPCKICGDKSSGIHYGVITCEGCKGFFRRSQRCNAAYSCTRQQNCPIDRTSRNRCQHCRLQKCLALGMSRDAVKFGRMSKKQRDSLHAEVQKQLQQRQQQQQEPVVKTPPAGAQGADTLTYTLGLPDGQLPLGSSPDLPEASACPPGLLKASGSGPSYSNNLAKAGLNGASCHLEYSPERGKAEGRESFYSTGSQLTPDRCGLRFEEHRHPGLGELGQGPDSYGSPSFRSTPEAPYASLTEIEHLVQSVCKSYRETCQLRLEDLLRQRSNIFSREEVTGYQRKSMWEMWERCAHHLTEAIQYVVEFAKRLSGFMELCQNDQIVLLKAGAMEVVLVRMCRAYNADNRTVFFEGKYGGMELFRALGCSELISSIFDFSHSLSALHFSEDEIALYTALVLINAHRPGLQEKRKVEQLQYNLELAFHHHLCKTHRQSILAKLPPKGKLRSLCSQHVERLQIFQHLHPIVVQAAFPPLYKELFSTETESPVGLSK

SMILES: CCn1nc(C(=O)NC[C@]2(O)CC[C@@H](S(C)(=O)=O)CC2)c(Cl)c1-c1ccc([C@](C)(O)CCC(F)(F)F)cc1OC(F)F (relative stereo) [Example 103, 4-Chloro-5-(2-(difluoromethoxy)-4-((R*)-5-trifluoro-2-hydroxypentan-2-yl)phenyl)-1-ethyl-N-(((1s,4S)-1-hydroxy-4-(methylsulfonyl)cyclohexyl)methyl)-1H-pyrazole-3-carboxamide]
inhibition at 3 µM [1]: 107%

SMILES: CCn1nc(C(=O)NC[C@]2(O)CC[C@@H](S(C)(=O)=O)CC2)c(Cl)c1-c1ccc(C[C@H](C)C(F)(F)F)cc1OC (single isomer, unassigned) [Example 37, 4-Chloro-1-ethyl-N-(((1s,4R)-1-hydroxy-4-(methylsulfonyl)cyclohexyl)methyl)-5-(2-methoxy-4-((S*)-3,3,3-trifluoro-2-methylpropyl)phenyl)-1H-pyrazole-3-carboxamide]
inhibition at 0.67 µM (0.67 μM compound concentration (footnote ****)): 97%

SMILES: CCn1nc(C(=O)NC[C@H]2CC[C@H](S(C)(=O)=O)CC2)c(Cl)c1-c1ccc(OC[C@@H]2CC2(F)F)cc1OC (single isomer, unassigned) [Example 210, 4-Chloro-5-(4-(((S*)-2,2-difluorocyclopropyl)methoxy)-2-methoxyphenyl)-1-ethyl-N-(((1r,4R)-4-(methylsulfonyl)cyclohexyl)methyl)-1H-pyrazole-3-carboxamide]
inhibition at 2 µM (2 μM compound concentration): 77%

Other lines, results leading:

inhibition at 3 µM [1]: 85%
SMILES: CCn1nc(C(=O)NC[C@]2(O)CC[C@@H](S(C)(=O)=O)CC2)c(Cl)c1-c1ccc([C@@](C)(O)CCC(F)(F)F)cc1OC(F)F (single isomer, unassigned) [Example 102, 4-Chloro-5-(2-(difluoromethoxy)-4-((S*)-5,5,5-trifluoro-2-hydroxypentan-2-yl)phenyl)-1-ethyl-N-(((1s,4R)-1-hydroxy-4-(methylsulfonyl)cyclohexyl)methyl)-1H-pyrazole-3-carboxamide]

inhibition at 3 µM: 104%
SMILES: CCn1nc(C(=O)NC[C@]2(O)CC[C@@H](S(C)(=O)=O)CC2)c(Cl)c1-c1ccc([C@H](O)C(C)(C)C(F)(F)F)cc1OC(F)F (single isomer, unassigned) [Example 107, 4-Chloro-5-(2-(difluoromethoxy)-4-((S*)-3,3,3-trifluoro-1-hydroxy-2,2-dimethylpropyl)phenyl)-1-ethyl-N-(((1s,4R)-1-hydroxy-4-(methylsulfonyl)cyclohexyl)methyl)-1H-pyrazole-3-carboxamide]

inhibition at 3 µM [1]: 92%
SMILES: CCn1nc(C(=O)NC[C@]2(O)CC[C@@H](S(C)(=O)=O)CC2)c(Cl)c1-c1ccc([C@@H](O)C(C)(C)C(F)(F)F)cc1OC(F)F (single isomer, unassigned) [Example 108, 4-Chloro-5-(2-(difluoromethoxy)-4-((R*)-3,3,3-trifluoro-1-hydroxy-2,2-dimethylpropyl)phenyl)-1-ethyl-N-(((1s,4S)-1-hydroxy-4-(methylsulfonyl)cyclohexyl)methyl)-1H-pyrazole-3-carboxamide]

inhibition at 1 µM: 75%
SMILES: CCn1nc(C(=O)NC[C@]2(O)CC[C@@H](S(C)(=O)=O)CC2)c(Cl)c1-c1ccc([C@H](O)C2(C(F)(F)F)CC2)cc1OC(F)F (single isomer, unassigned) [Example 110, 4-Chloro-5-(2-(difluoromethoxy)-4-((S*)-hydroxy(1-(trifluoromethyl)cyclopropyl)methyl)phenyl)-1-ethyl-N-(((1s,4R)-1-hydroxy-4-(methylsulfonyl)cyclohexyl)methyl)-1H-pyrazole-3-carboxamide]

inhibition at 1 µM: 95%
SMILES: CCn1nc(C(=O)NC[C@]2(O)CC[C@@H](S(C)(=O)=O)CC2)c(Cl)c1-c1ccc([C@@H](O)C2(C(F)(F)F)CC2)cc1OC(F)F (single isomer, unassigned) [Example 111, 4-Chloro-5-(2-(difluoromethoxy)-4-((R*)-hydroxy(1-(trifluoromethyl)cyclopropyl)methyl)phenyl)-1-ethyl-N-(((1s,4S)-1-hydroxy-4-(methylsulfonyl)cyclohexyl)methyl)-1H-pyrazole-3-carboxamide]
